{"source": "patent US20070299040A1", "about": "“Composition for Preventing a Cold” (BIOTECH INSTITUTE FOR INTERNATIONAL INNOVATION, INC., priority 2004, published 2007)", "assay_type_in_all_cases": "in vivo, human", "key": {"[1]": {"test_system": "cold", "experiment": "Analysis of cold cases, composition of Example 8 vs vitamin C and placebo (Experimental Example 3)", "text": "The present experiment example analyzed cold cases in the experiment group who took the composition of Example 8, and the control groups I and II who took vitamin C and placebo (wheat flour) respectively, throughout 40 months from 1999 to 2003. The intake is the same as 1 g after meal. Here, ‘cold’ is defined to show high fever or slight fever, sore throat, dry cough, headache, myalgia, and chill.\nAs a result of the above experiment, the average of cold case a year per person in the experiment group who took the present composition, the control group I who took vitamin C, and the control group II who took placebo was 0, 1.5, and 5.6, respectively, all of which are statistically significant difference under 0.05% of significance probability. In sum, the composition of the present invention accomplished 100% of cold prevention effect."}, "[2]": {"test_system": "IL-10", "experiment": "Cytokine in serum by ELISA (Experimental Example 4)", "conditions": "samples from persons after 40 months of intake", "protocol": "(§1) After such cultivating, the plates were washed, biotynilated secondary antibody was filled in each plate by […], and streptavidin ALP was added thereto, which was cultivated at 37° C. for 30 minutes. After washing the plates again, alkaline phosphatase PNPP was added thereto, and the plates were cultivated for 30 minutes and measured with ELISA reader at 405 nm."}, "[3]": {"test_system": "IL-4", "experiment": "Cytokine in serum by ELISA (Experimental Example 4)", "conditions": "samples from persons after 40 months of intake; 10 samples", "protocol": "as §1"}, "[4]": {"test_system": "IL-2", "experiment": "Cytokine in serum by ELISA (Experimental Example 4)", "conditions": "samples from persons after 40 months of intake; 10 samples", "protocol": "as §1"}, "[5]": {"test_system": "INF-γ", "experiment": "Cytokine in serum by ELISA (Experimental Example 4)", "conditions": "samples from persons after 40 months of intake; 10 samples", "protocol": "as §1"}, "[6]": {"test_system": "IL-12", "experiment": "Cytokine in serum by ELISA (Experimental Example 4)", "conditions": "samples from persons after 40 months of intake; 10 samples", "protocol": "as §1"}}, "note": "Where “and” joins values, the source holds several entries; their conditions need not be identical. Equal values may be shown once."}
{"smiles": "O=C1O[C@H]([C@@H](O)CO)C(O)=C1O", "note": "[Vitamin C, ascorbic acid]", "values": [{"measurement": "average of cold case a year per person", "setting": "[1]; 40 months, 1 g after meal", "result": 1.5}, {"measurement": "cold prevention effect (in words)", "setting": "[1]; group administrating vitamin C only", "result": "some cold prevention effect"}, {"measurement": "Frequency of cold in the control group taking vitamin C", "setting": "[1]; per person (one line per subject), 1 g after meal, 40 months 1999-2003", "result": "4 (7×) and 5 (5×) and 7 and 6 (2×)"}, {"measurement": "Cytokine in serum IL-10", "setting": "[2]", "result": "10 ± 8", "unit": "pg/mL"}, {"measurement": "Cytokine in serum IL-4", "setting": "[3]", "result": "0.14 ± 0.03", "unit": "pg/mL"}, {"measurement": "Cytokine in serum IL-2", "setting": "[4]", "result": "51 ± 19", "unit": "pg/mL"}, {"measurement": "Cytokine in serum INF-γ", "setting": "[5]", "result": "68 ± 12", "unit": "pg/mL"}, {"measurement": "Cytokine in serum IL-12", "setting": "[6]", "result": "20 ± 7", "unit": "pg/mL"}]}
